Experimental data reported in patent US5082771A, “Detecting cells using tellurapyrylium dihydroxides” (Eastman Kodak Company, priority 1989, dated 1992).

What was measured:
[1] = Maximum absorption and extinction coefficient of the Te(IV) dihydroxides in water; type: physicochemical; conditions: for extinction coefficient (ε): at λmax
From the text: The maximum absorption and extinction coefficient for the compounds in water is listed below: […]

E. Coli [2] = test: Absorption spectra over time of a system comprising E. Coli and a tellurium (IV) dihydroxide (FIG. 1); type: cell-based; conditions: for absorption maximum: FIG. 1, system comprising E. Coli
From the text: FIG. 1 comprises a series of plots showing the change, over time, of the absorption spectrum of a system comprising E. Coli. and a tellurium (IV) dihydroxide. More specifically, the series of plots follows the reduction: [drawing 1] as a function of time.
Over time, as the E. Coli reduces the tellurium (IV) dihydroxide. i.e., the TPDH. the absorption at 510 nm diminishes until it becomes non existent. As the absorption diminishes at 510 nm, a much more intense absorption peak at about 820 nm arises. In other words, the extinction coefficient for the absorption maximum of the TPDH is mu:h less than the extinction coefficient for the absorption maximum for the reduction product. Stated another way, the extinction coefficient for the absorption peak of the reduction product is much greater than the extinction coefficient for the absorption peak of the TPDH.
The time interval between each spectophometric tracing in FIG. 1 is about 30 seconds.

E. Coli [3] = test: Reduction of Te/Te Dye by suspension of E. Coli cells, change in optical density as a function of time (Example 2); type: cell-based; conditions: 1 × 10^-4 M, pH about 7.8
From the text: The final concentration of the TPDN was about 1×10^-4 molar after dilution.
The stock solutions of the TPDH can be prepared in a concentration within the range of from about 5×10^-2 and about 5×10^-4 molar.

[4] = Stability (half life) at 37° C. at various pH values; type: physicochemical
From the text: The stability of the dihydroxycompounds used in this invention is generally very good.

SMILES: CC(C)(C)C1=CC(=CC=Cc2cc(C(C)(C)C)[s+]c(C(C)(C)C)c2)C=C(C(C)(C)C)[Te]1(O)O [Te/S Dye]
- maximum absorption (λmax) [1]: 480 nm
- extinction coefficient (ε) [1]: 52,000

SMILES: CC(C)(C)C1=CC(=CC=Cc2cc(C(C)(C)C)[se+]c(C(C)(C)C)c2)C=C(C(C)(C)C)[Te]1(O)O [Te/Se Dye]
- maximum absorption (λmax) [1]: 502 nm
- extinction coefficient (ε) [1]: 55,000

SMILES: CC(C)(C)C1=CC(=CC=Cc2cc(C(C)(C)C)[te+]c(C(C)(C)C)c2)C=C(C(C)(C)C)[Te]1(O)O [Te/Te Dye, 4[3[2,6-bis(1,1-dimethylethyl)-tellurinium-4-yl]-2-propenylidene]-1,1-dihydroxy-2,6-bis(1,1-dimethylethyl)-1,1-dihydro-4H-tellurin chloride]
- absorption at about 820 nm (E. Coli [2]; FIG. 1, before reduction): practically no absorption
- absorption maximum (E. Coli [2]): about 510 nm
- absorption at about 510 nm after reduction by E. Coli (E. Coli [2]; over time, tracings about every 30 seconds): non existent
- Optical Density (O.D.) @ 820 nm (E. Coli [3]; 10^5 Cells/mL, 0.0 s): 0.05
- Optical Density (O.D.) @ 820 nm (E. Coli [3]; 10^5 Cells/mL, 60 s): 0.15
- Optical Density (O.D.) @ 820 nm (E. Coli [3]; 10^5 Cells/mL, 120 s): 0.90
- Optical Density (O.D.) @ 820 nm (E. Coli [3]; 10^5 Cells/mL, 180 s): 0.65
- Optical Density (O.D.) @ 820 nm (E. Coli [3]; 10^5 Cells/mL, 240 s): 0.89
- Optical Density (O.D.) @ 820 nm (E. Coli [3]; 10^5 Cells/mL, 300 s): 0.98
- Optical Density (O.D.) @ 820 nm (E. Coli [3]; 10^5 Cells/mL, 360 s): 1.13
- Optical Density (O.D.) @ 820 nm (E. Coli [3]; 10^5 Cells/mL, 420 s): 1.18
- Optical Density (O.D.) @ 820 nm (E. Coli [3]; 10^5 Cells/mL, 480 s): 1.23
- Optical Density (O.D.) @ 820 nm (E. Coli [3]; 10^5 Cells/mL, 540 s): 1.24
- Optical Density (O.D.) @ 820 nm (E. Coli [3]; 10^6 Cells/mL, 0.0 s): 0.05
- Optical Density (O.D.) @ 820 nm (E. Coli [3]; 10^6 Cells/mL, 30 s): 0.10
- Optical Density (O.D.) @ 820 nm (E. Coli [3]; 10^6 Cells/mL, 60 s): 0.32
- Optical Density (O.D.) @ 820 nm (E. Coli [3]; 10^6 Cells/mL, 120 s): 0.63
- Optical Density (O.D.) @ 820 nm (E. Coli [3]; 10^6 Cells/mL, 150 s): 0.84
- Optical Density (O.D.) @ 820 nm (E. Coli [3]; 10^6 Cells/mL, 210 s): 1.15
- Optical Density (O.D.) @ 820 nm (E. Coli [3]; 10^6 Cells/mL, 270 s): 1.46
- Optical Density (O.D.) @ 820 nm (E. Coli [3]; 10^6 Cells/mL, 300 s): 1.60
- Optical Density (O.D.) @ 820 nm (E. Coli [3]; 10^6 Cells/mL, 330 s): 1.73
- Optical Density (O.D.) @ 820 nm (E. Coli [3]; 10^6 Cells/mL, 390 s): 2.00
- maximum absorption (λmax) [1]: 510 nm
- extinction coefficient (ε) [1]: 56,000

SMILES: CC(C)(C)C1=CC(=CC=Cc2cc(C(C)(C)C)[te+]c(C(C)(C)C)c2)C=C(C(C)(C)C)[Te]1 [compound (b), 4-[3-[2,6-bis(1,1-dimethylethyl-4H-tellurin-4-ylidene]-1-propenyl]-2,6-bis(1,1-dimethylethyl) -tellurinium chloride]
- absorption maximum (E. Coli [2]): about 820 nm

SMILES: CC(C)(C)C1=CC(=CC=Cc2cc(C(C)(C)C)[te+]c(C(C)(C)C)c2)C=C(C(C)(C)C)[Te]1(O)O [drawing 16]
- half-life ([4]; pH 4.58): 3.5 h
- half-life ([4]; pH 5.98): 4.5 h
- half-life ([4]; pH 7.4, pH 7.40): 12 h
- half-life ([4]; pH 8.5, pH 8.50): 12 h
- half-life ([4]; pH 9.03): 8.5 h
- half-life ([4]; pH 10.2, pH 10.20): 8 h
- half-life ([4]; pH 11.98): 6.3 h
